The record followed here is patent US20090246169A1, “INDOLOPYRIDINES AS EG5 KINESIN MODULATORS” (priority 2006, published 2009).

The experiment concerns RKO p21 colon adenocarcinoma cells, uninduced (proliferating). Briefly: Alamar Blue cell viability assay, RKO p21 uninduced (proliferating). In kind it is cell-based. Particulars: Homo sapiens; anti-proliferative/cytotoxic activity, 72 hours, without Ponasterone A; read-out: −log EC50 [mol/l] RKO p21 uninduced (proliferating) (converted). On the procedure:
The anti-proliferative/cytotoxic activity of the compounds described herein can be tested on subclones of RKO human colon adenocarcinoma cells (Schmidt et al., Oncogene 19, 2423-2429; 2000) using the Alamar Blue cell viability assay (described in O'Brien et al. Eur J Biochem 267, 5421-5426, 2000). The compounds are dissolved as 10 mM solutions in DMSO and subsequently diluted in semi-logarithmic steps. DMSO dilutions are further diluted 1:100 into Dulbecco's modified Eagle's medium (DMEM) containing 10% fetal calf serum to a final concentration twice as much as the final concentration in the test. RKO subclones are seeded into 96 well flat bottom plates at a density of 4000 cells per well in a volume of 50 μl per well. 24 hours after seeding the 50 μl each of the compound dilutions in DMEM medium are added into each well of the 96 well plate. Each compound dilution is tested as triplicates. Wells containing untreated control cells are filled with 50 μl DMEM medium containing 1% DMSO. The cells are then incubated with the substances for 72 hours at 37° C. in a humidified atmosphere containing 5% carbon dioxide. To determine the viability of the cells, 10 μl of an Alamar Blue solution (Biosource) are added and the fluorescence is measured at an extinction of 544 nm and an emission of 590 nm. For the calculation of the cell viability the emission value from untreated cells is set as 100% viability and the emission rates of treated cells are set in relation to the values of untreated cells. Viabilities are expressed as % values. The Graphpad Prism program is used for the calculation of EC50 values for anti-proliferative/cytotoxic activity out of the obtained dose-response curves.
To determine the cell cycle specific mode of action, subclones of RKO colon adenocarcinoma cells (RKOp21 or RKOp27 as described by Schmidt et al. in Oncogene 19, 2423-2429; 2000) are seeded into 96 well flat bottom plates at a density of 16000 cells per well in a volume of 50 μl per well in DMEM growth medium with 10% FCS containing 10 μM Ponasterone A. 24 hours after seeding the 50 μl each of the compound dilutions in DMEM medium are added into each well of the 96-well plate. Each compound dilution is tested as triplicates. Wells containing untreated control cells are filled with 50 μl DMEM medium containing 1% DMSO. The cells are then incubated with the substances for 72 hours at 37° C. in a humidified atmosphere containing 5% carbon dioxide. To determine the viability of the cells, 10 μl of an Alamar Blue solution (Biosource) are added and the fluorescence is measured at an extinction of 544 nm and an emission of 590 nm. For the calculation of the cell viability the emission value from untreated cells is set as 100% viability and the emission rates of treated cells are set in relation to the values of untreated cells. Viabilities are expressed as % values. The Graphpad Prism program (GraphPad Software, Inc) is used for the calculation of EC50 values out of the obtained dose-response curves. Viability is compared of proliferating cells grown in the absence of the inducer Ponasterone A, versus viability of cells arrested by the expression of ectopic p27Kip1 induced by Ponasterone A.
Representative values for anti-proliferation/cytotoxicity [measured as −log EC50 (mol/l)] determined in the aforementioned assays follow from the following tables B1 and B2, in which the numbers of the compounds correspond to the numbers of the examples.
Background: Alamar Blue is a resazurin reagent that responds to reducing activity.
On to `COc1ccc2[nH]c3c(c2c1)C[C@@]1(C)C(=O)N(CCN2CCOCC2)C(=O)N1[C@@H]3c1ccccc1` (racemic) [Example 40, (3aSR, 10RS)-6-Methoxy-3a-methyl-2-(2-morpholin-4-yl-ethyl)-10-phenyl-3a,4,9,10-tetrahydro-2,9,10a-triaza-cyclopenta[b]fluorene-1,3-dione], for which the EC50 was at most 1 µM. Consider `COc1ccc2[nH]c3c(c2c1)C[C@@]1(C)C(=O)N(CCN)C(=O)N1[C@@H]3c1ccccc1` (racemic) [Example 13, (3aSR,10RS)-2-(2-Amino-ethyl)-6-methoxy-3a-methyl-10-phenyl-3a,4,9,10-tetrahydro-2,9,10a-triaza-cyclopenta[b]fluorene-1,3-dione], for which the EC50 was at most 1 µM. With `COc1ccc2[nH]c3c(c2c1)C[C@@]1(C)C(=O)N(CCCN2CCCCCC2)C(=O)N1[C@@H]3c1ccccc1` (racemic) [Example 78, (3aSR, 10RS)-2-(3-Azepan-1-yl-propyl)-6-methoxy-3a-methyl-10-phenyl-3a,4,9,10-tetrahydro-2,9,10a-triaza-cyclopenta[b]fluorene-1,3-dione] the figure was at most 1 µM; with `COc1ccc2[nH]c3c(c2c1)C[C@@]1(C)C(=O)N(CCCN(C)C)C(=O)N1[C@@H]3c1ccccc1` (racemic) [Example 45, (3aSR, 10RS)-2-(3-Dimethylamino-propyl)-6-methoxy-3a-methyl-10-phenyl-3a,4,9,10-tetrahydro-2,9,10a-triaza-cyclopenta[b] fluorene-1,3-dione], at most 1 µM. With `COc1ccc2[nH]c3c(c2c1)C[C@@]1(C)C(=O)N(CCNCC(C)C)C(=O)N1[C@@H]3c1ccccc1` (racemic) [Example 35, (3aSR, 10RS)-2-(2-Isobutyl-amino-ethyl)-6-methoxy-3a-methyl-10-phenyl-3a,4,9,10-tetrahydro-2,9,10a-triaza-cyclopenta[b]fluorene-1,3-dione] the figure was at most 1 µM; with `CCNCCCN1C(=O)N2[C@H](c3ccccc3)c3[nH]c4ccc(OC)cc4c3C[C@@]2(C)C1=O` (racemic) [Example 44, (3aSR, 10RS)-2-(3-Ethyl-amino-propyl)-6-methoxy-3a-methyl-10-phenyl-3a,4,9,10-tetrahydro-2,9,10a-triaza-cyclopenta[b]fluorene-1,3-dione], at most 1 µM; with `COc1ccc2[nH]c3c(c2c1)C[C@@]1(C)C(=O)N(CCCN2CCN(C)CC2)C(=O)N1[C@@H]3c1ccccc1` (racemic) [Example 68, (3aSR, 10RS)-6-Methoxy-3a-methyl-2-[3-(4-methyl-piperazin-1-yl)-propyl]-10-phenyl-3a,4,9,10-tetrahydro-2,9,10a-triaza-cyclopenta [b]fluorene-1,3-dione], at most 1 µM. As to `CC[C@@]12Cc3c([nH]c4ccc(OC)cc34)[C@@H](c3ccccc3)N1C(=O)N(CCN)C2=O` (racemic) [Example 10, (3aSR,10RS)-2-(2-Amino-ethyl)-3a-ethyl-6-methoxy-10-phenyl-3a,4,9,10-tetrahydro-2,9,10a-triaza-cyclopenta[b]fluorene-1,3-dione], the EC50 was at most 1 µM. The result for `COc1ccc2[nH]c3c(c2c1)C[C@@]1(C)C(=O)N(CCCNCC(C)C)C(=O)N1[C@@H]3c1ccccc1` (racemic) [Example 52, (3aSR, 10RS)-2-(3-Isobutylamino-propyl)-6-methoxy-3a-methyl-10-phenyl-3a,4,9,10-tetrahydro-2,9,10a-triaza-cyclopenta[b] fluorene-1,3-dione] reads at most 1 µM; that for `C=CCNCCCN1C(=O)N2[C@H](c3ccccc3)c3[nH]c4ccc(OC)cc4c3C[C@@]2(C)C1=O` (racemic) [Example 77, (3aSR, 10RS)-2-(3-Allyl-amino-propyl)-6-methoxy-3a-methyl-10-phenyl-3a,4,9,10-tetrahydro-2,9,10a-triaza-cyclopenta[b]fluorene-1,3-dione], at most 1 µM; that for `CCN(CC)CCCN1C(=O)N2[C@H](c3ccccc3)c3[nH]c4ccc(OC)cc4c3C[C@@]2(C)C1=O` (racemic) [Example 54, (3aSR, 10RS)-2-(3-Diethyl-amino-propyl)-6-methoxy-3a-methyl-10-phenyl-3a,4,9,10-tetrahydro-2,9,10a-triaza-cyclopenta[b]fluorene-1,3-dione], at most 1 µM. With `COc1ccc2[nH]c3c(c2c1)C[C@@]1(C)C(=O)N(CCN2CCN(C)CC2)C(=O)N1[C@@H]3c1ccccc1` (racemic) [Example 34, (3aSR, 10RS)-6-Methoxy-3a-methyl-2-[2-(4-methyl-piperazin-1-yl)-ethyl]-10-phenyl-3a,4,9,10-tetrahydro-2,9,10a-triaza-cyclopenta[b] fluorene-1,3-dione] the figure was at most 1 µM.

For `COc1ccc2[nH]c3c(c2c1)C[C@@]1(C)C(=O)N(CCCNC(C)C)C(=O)N1[C@@H]3c1ccccc1` (racemic) [Example 51, (3aSR, 10RS)-2-(3-Isopropylamino-propyl)-6-methoxy-3a-methyl-10-phenyl-3a,4,9,10-tetrahydro-2,9,10a-triaza-cyclopenta[b] fluorene-1,3-dione], the EC50 was at most 1 µM.

With `COCCNCCCN1C(=O)N2[C@H](c3ccccc3)c3[nH]c4ccc(OC)cc4c3C[C@@]2(C)C1=O` (racemic) [Example 70, (3aSR, 10RS)-6-Methoxy-2-[3-(2-methoxy-ethylamino)-propyl]-3a-methyl-10-phenyl-3a,4,9,10-tetrahydro-2,9,10a-triaza-cyclopenta[b]fluorene-1,3-dione], the EC50 was at most 1 µM. In the case of `COc1ccc2[nH]c3c(c2c1)C[C@@]1(C)C(=O)N(CCNCCO)C(=O)N1[C@@H]3c1ccccc1` (racemic) [Example 26, (3aSR, 10RS)-2-[2-(2-Hydroxy-ethylamino)-ethyl]-6-methoxy-3a-methyl-10-phenyl-3a,4,9,10-tetrahydro-2,9,10a-triaza-cyclopenta[b] fluorene-1,3-dione], the EC50 is at most 1 µM.

With `COc1ccc2[nH]c3c(c2c1)C[C@@]1(C)C(=O)N(CCN2CCCC2)C(=O)N1[C@@H]3c1ccccc1` (racemic) [Example 3, (3aSR,10RS)-6-Methoxy-3a-methyl-10-phenyl-2-(2-pyrrolidin-1-yl-ethyl)-3a,4,9,10-tetrahydro-2,9,10a-triaza-cyclopenta[b]fluorene-1,3-dione], the EC50 was at most 1 µM. `COc1ccc2[nH]c3c(c2c1)C[C@@]1(C)C(=O)N(CCCNCC(F)F)C(=O)N1[C@@H]3c1ccccc1` [Example 50, (3aS, 10R)-2-[3-(2,2-Difluoro-ethylamino)-propyl]-6-methoxy-3a-methyl-10-phenyl-3a,4,9,10-tetrahydro-2,9,10a-triaza-cyclopenta[b] fluorene-1,3-dione]: the EC50 is at most 1 µM. With `COc1ccc2[nH]c3c(c2c1)C[C@@]1(C)C(=O)N(CCN2CCN(C(C)=O)CC2)C(=O)N1[C@@H]3c1ccccc1` (racemic) [Example 47, (3aSR, 10RS)-2-[2-(4-Acetyl-piperazin-1-yl)-ethyl]-6-methoxy-3a-methyl-10-phenyl-3a,4,9,10-tetrahydro-2,9,10a-triaza-cyclopenta[b] fluorene-1,3-dione] the figure was at most 1 µM; with `COc1ccc2[nH]c3c(c2c1)C[C@@]1(C)C(=O)N(CCN(C)CCO)C(=O)N1[C@@H]3c1ccccc1` (racemic) [Example 30, (3aSR, 10RS)-2-{2-[(2-Hydroxy-ethyl)-methyl-amino]-ethyl}-6-methoxy-3a-methyl-10-phenyl-3a,4,9,10-tetrahydro-2,9,10a-triaza-cyclopenta[b]fluorene-1,3-dione], at most 1 µM.
